Literature values, collected in patent US20170266090A1, “ANTIMICROBIAL COMPOSITIONS THAT ARE DERMATOLOGICALLY NON-DRYING” (Marvel Technologies USA, LLC, priority 2016, published 2017).

Conditions: background statement, no source given

Drying time: eight to thirteen
Compound: CCO [Ethanol]
